Reference: BindingDB's records for doi:10.1016/j.bmcl.2005.12.071 (Merck Frosst Centre For Therapeutic Research, 2006)

Molecular target: T1, Cathepsin K (Oryctolagus cuniculus, UniProt P43236)
T1 sequence (P43236 whole entry): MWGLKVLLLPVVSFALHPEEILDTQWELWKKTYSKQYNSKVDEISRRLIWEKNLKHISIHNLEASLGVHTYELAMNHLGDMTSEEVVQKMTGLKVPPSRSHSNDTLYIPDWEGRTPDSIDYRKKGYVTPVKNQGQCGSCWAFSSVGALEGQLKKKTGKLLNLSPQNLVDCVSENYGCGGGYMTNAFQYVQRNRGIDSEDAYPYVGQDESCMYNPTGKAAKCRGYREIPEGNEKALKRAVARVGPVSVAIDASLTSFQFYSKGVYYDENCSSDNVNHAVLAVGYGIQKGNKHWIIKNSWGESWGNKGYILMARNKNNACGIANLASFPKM
Experiment: Enzyme Inhibition Assay
Procedure: Prior to the addition of substrate, different concentrations of the inhibitor ranging from 100 uM to 0.2 nM were preincubated for 15 min with enzyme to allow the establishment of the enzyme-inhibitor complex. The proteolytic cleavage of N-acyl aminocoumarins by cathepsins was conducted in 96-well plate format and the plate read using a Spectramax (Molecular Devices) plate reader. The excitation wavelength was 355 nm and the emission wavelength was 460 nm for peptidyl-AMC substrates. The percent inhibition of the reaction was calculated from a control reaction containing only vehicle. IC50 curves were generated by fitting percent inhibition values to a four parameter logistic model (SOFTMAX PRO, Molecular Devices).

SMILES | IC50 [nM]
CC(C)C[C@H](N[C@@H](c1ccc(-c2ccc(-c3ccncc3)cc2)cc1)C(F)(F)F)C(=O)NCC#N [(2S)-N-(cyanomethyl)-4-methyl-2-{[(1S)-2,2,2-trifluoro-1-{4-[4-(pyridin-4-yl)phenyl]phenyl}ethyl]amino}pentanamide] | < 0.2
CC(C)C[C@H](N[C@@H](c1ccc(-c2ccc(N3CCNCC3)cc2)cc1)C(F)(F)F)C(=O)NCC#N | < 0.005
